US10034879B2, “Substituted benzaldehyde compounds and methods for their use in increasing tissue oxygenation” (Global Blood Therapeutics, Inc., priority 2011, dated 2018)

These compounds were tested against T1, purified Hemoglobin S (HbS) (Homo sapiens, UniProt P68871+P69905, E7V) (assay: Oxygen equilibrium curves (OEC) in purified HbS, HEMOX analyzer, change in p50). Details: compound at 30 μM; 25 μM purified HbS.
T1 construct: HbS was purified by a modified procedure; from tissue; host or cells: blood of homozygous sickle cell patients
Type: biochemical
Protocol: Oxygen equilibrium curves (OEC) in purified Hemoglobin S (HbS) were measured by the change in p50, the partial pressure of oxygen at which the heme binding sites in the HbS sample are 50% saturated with oxygen. HbS was purified by a modified procedure (Antonini and Brunori, 1971; Heomoglobin and Myoglobin in their Reactions with Ligands; North Holland Publishing Company; Amsterdam, London) from blood obtained from homozygous sickle cell patients though the Hemoglobinopathy Center at Children's Hospital Oakland Research Institute (CHORI) with Institutional Review Board approval. Oxygen equilibrium curves were carried out with a HEMOX analyzer, (TCS Scientific, New Hope, Pa.). Five hundred μL of 250 μM purified HbS were diluted into 4.5 mL of HEMOX buffer (30 mM TES, 130 mM NaCl, 5 mM KCl, pH=7.4) resulting in a final hemoglobin concentration of 25 μM. The compounds were added at the final desired concentrations. The mixture was incubated for 45 min at 37° C. and then transferred to the Hemox sample chamber. The samples were saturated with oxygen by flushing with compressed air for 10 minutes. The samples were then flushed with pure nitrogen and the absorbance of deoxy-Hb was recorded as a function of the solution pO2. The oxygen equilibrium data was then fit to the Hill Model to obtain values for p50. The deoxygenation curves for both HbS alone (control) and HbS in the presence of compound were collected with the TCS software. The p50 for purified Hbs was typically 13.8±1.6. Delta p50 values were obtained from the p50 value for control minus the p50 value for HbS treated with compound divided by the p50 value for the control.
The compounds of Table 1 that were where tested in the assay above were all found to have positive delta p50 values. Delta p50% is calculated from [[p50(HbS)−p50(HbS treated with compound)]/p50(HbS)]×100. Table 2 below lists the delta p50% values where + indicates a delta p50% of between 0 and 29 and ++ indicates a delta p50% of 30 or greater. Unless noted otherwise, the compounds in Table 2 were tested at 30 μM.

Row | SMILES | delta p50
1 | O=Cc1ccccc1C(=O)Nc1cccn2ccnc12 [Compound 40, 2-formyl-N-(imidazo[1,2-a]pyridin-8-yl)benzamide] | + (+ indicates a delta p50% of between 0 and 29)
2 | COc1ccc(OCc2ccc3cncn3c2)c(C=O)c1 [Compound 34, 2-(imidazo[1,5-a]pyridin-6-ylmethoxy)-5-methoxybenzaldehyde] | + (+ indicates a delta p50% of between 0 and 29)
3 | COc1ccc(OCc2cccn3cncc23)c(C=O)c1 [Compound 7, 2-(imidazo[1,5-a]pyridin-8-ylmethoxy)-5-methoxybenzaldehyde] | ++ (++ indicates a delta p50% of 30 or greater)
4 | COc1ccc(OCc2cccc3ncccc23)c(C=O)c1 [Compound 10, 5-methoxy-2-(quinolin-5-ylmethoxy)benzaldehyde] | ++ (++ indicates a delta p50% of 30 or greater)
5 | COc1ccc(OCc2ccc3nccn3c2)c(C=O)c1 [Compound 4, 2-(imidazo[1,2-a]pyridin-6-ylmethoxy)-5-methoxybenzaldehyde] | + (+ indicates a delta p50% of between 0 and 29)
6 | N#Cc1ccc(OCc2cccn3ccnc23)c(C=O)c1 [Compound 35, 3-formyl-4-(imidazo[1,2-a]pyridin-8-ylmethoxy)benzonitrile] | + (+ indicates a delta p50% of between 0 and 29)
7 | COc1ccc(OCc2cn3ccccc3n2)c(C=O)c1 [Compound 5, 2-(imidazo[1,2-a]pyridin-2-ylmethoxy)-5-methoxybenzaldehyde] | ++ (++ indicates a delta p50% of 30 or greater)
8 | COc1ccc(OCc2cccc3[nH]ncc23)c(C=O)c1 [Compound 25, 2-((1H-indazol-4-yl)methoxy)-5-methoxybenzaldehyde] | ++ (++ indicates a delta p50% of 30 or greater)
9 | COc1ccc(OCc2cccc3c2cnn3C)c(C=O)c1 [Compound 23, 5-methoxy-2-((1-methyl-1H-indazol-4-yl)methoxy)benzaldehyde] | ++ (++ indicates a delta p50% of 30 or greater)
10 | Cc1ccc(OCc2cccn3ccnc23)c(C=O)c1 [Compound 16, 2-(imidazo[1,2-a]pyridin-8-ylmethoxy)-5-methylbenzaldehyde] | + (+ indicates a delta p50% of between 0 and 29)
11 | COc1ccc(OCc2cccn3ccnc23)c(C=O)c1 [Compound 1, 2-(imidazo[1,2-a]pyridin-8-ylmethoxy)-5-methoxybenzaldehyde] | ++ (++ indicates a delta p50% of 30 or greater)
12 | O=Cc1ccccc1OCc1cccn2ccnc12 [Compound 13, 2-(imidazo[1,2-a]pyridin-8-ylmethoxy)benzaldehyde] | + (+ indicates a delta p50% of between 0 and 29)
13 | COc1ccc(OCc2cccc3nccn23)c(C=O)c1 [Compound 37, 2-(imidazo[1,2-a]pyridin-5-ylmethoxy)-5-methoxybenzaldehyde] | + (+ indicates a delta p50% of between 0 and 29)
14 | O=Cc1ccc(F)cc1OCc1cccn2ccnc12 [Compound 14, 4-fluoro-2-(imidazo[1,2-a]pyridin-8-ylmethoxy)benzaldehyde] | + (+ indicates a delta p50% of between 0 and 29)
15 | O=Cc1cc(Br)ccc1OCc1cccn2ccnc12 [Compound 11, 5-bromo-2-(imidazo[1,2-a]pyridin-8-ylmethoxy)benzaldehyde] | + (+ indicates a delta p50% of between 0 and 29)
16 | COc1ccc(OCc2ccn3ccnc3c2)c(C=O)c1 [Compound 8, 2-(imidazo[1,2-a]pyridin-7-ylmethoxy)-5-methoxybenzaldehyde] | + (+ indicates a delta p50% of between 0 and 29)
17 | COc1ccc(OCc2cnc3ccccn23)c(C=O)c1 [Compound 9, 2-(imidazo[1,2-a]pyridin-3-ylmethoxy)-5-methoxybenzaldehyde] | + (+ indicates a delta p50% of between 0 and 29)
18 | N#Cc1ccc(C=O)c(OCc2cccn3ccnc23)c1 [Compound 2, 4-formyl-3-(imidazo[1,2-a]pyridin-8-ylmethoxy)benzonitrile] | + (+ indicates a delta p50% of between 0 and 29)
19 | COc1ccc(OCc2cn3cccc(C)c3n2)c(C=O)c1 [Compound 24, 5-methoxy-2-((8-methylimidazo[1,2-a]pyridin-2-yl)methoxy)benzaldehyde] | ++ (++ indicates a delta p50% of 30 or greater)

Same assay, conditions: compound at 100 μM; 25 μM purified HbS

Row | SMILES | delta p50
20 | COc1ccc(OCc2ccnc3[nH]ccc23)c(C=O)c1 [Compound 21, 2-((1H-pyrrolo[2,3-b]pyridin-4-yl)methoxy)-5-methoxybenzaldehyde] | + (100 μM) (+ indicates a delta p50% of between 0 and 29)
21 | COc1ccc(C=O)c(OCc2cccn3cncc23)c1 [Compound 6, 2-(imidazo[1,5-a]pyridin-8-ylmethoxy)-4-methoxybenzaldehyde] | + (100 μM) (+ indicates a delta p50% of between 0 and 29)
22 | O=Cc1ccc(Cl)cc1OCc1cccn2ccnc12 [Compound 12, 4-chloro-2-(imidazo[1,2-a]pyridin-8-ylmethoxy)benzaldehyde] | + (100 μM) (+ indicates a delta p50% of between 0 and 29)
23 | COc1ccc(C=O)c(OCc2cccn3ccnc23)c1 [Compound 3, 2-(imidazo[1,2-a]pyridin-8-ylmethoxy)-4-methoxybenzaldehyde] | + (100 μM) (+ indicates a delta p50% of between 0 and 29)
24 | COc1cccc(C=O)c1OCc1cccn2ccnc12 [Compound 15, 2-(imidazo[1,2-a]pyridin-8-ylmethoxy)-3-methoxybenzaldehyde] | + (100 μM) (+ indicates a delta p50% of between 0 and 29)
25 | COc1ccc(OCc2ccc3cnccn23)c(C=O)c1 [Compound 33, 5-methoxy-2-(pyrrolo[1,2-a]pyrazin-6-ylmethoxy)benzaldehyde] | + (100 μM) (+ indicates a delta p50% of between 0 and 29)
26 | O=Cc1ccccc1NC(=O)c1cccn2ccnc12 [Compound 39, N-(2-formylphenyl)imidazo[1,2-a]pyridine-8-carboxamide] | + (100 μM) (+ indicates a delta p50% of between 0 and 29)
27 | COc1ccc(NC(=O)c2cccn3ccnc23)c(C=O)c1 [Compound 38, N-(2-formyl-4-methoxyphenyl)imidazo[1,2-a]pyridine-8-carboxamide] | ++ (100 μM) (++ indicates a delta p50% of 30 or greater)

These compounds were tested against T2, HbS/A (Homo sapiens, UniProt P68871+P69905, E7V) (assay: Relaxed-to-tense transition assay (R/T assay)). Details: compound at 9 μM; 3 μM HbS/A.
T2 construct: A mixture of HbS/A was purified from blood; from tissue; host or cells: blood of homozygous sickle cell patients
Type: biochemical
Protocol: A relaxed-to-tense transition assay (“R/T assay”) was used to determine the ability of substituted benzaldehyde compounds to maintain the high-oxygen affinity relaxed (R) state of hemoglobin under deoxygenated conditions. This ability can be expressed as a “delta R” value (i.e., the change in the time-period of the R state after hemoglobin is treated with a compound, as compared to the period without treatment with the compound). Delta R is the % R to remaining after the compounds treatment compared with no treatment (e.g. if R % without treatment is 8% while with treatment with a target compound is 48% R at 30 μM, then % R is 40% for that compound.
A mixture of HbS/A was purified from blood obtained from homozygous sickle cell patients though the Hemoglobinopathy Center at Children's Hospital Oakland Research Institute (CHORI) with Institutional Review Board approval. HbS/A (at a final concentration of 3 μM) was incubated for 1 hr at 37° C. in presence or absence of compounds in […] potassium phosphate buffer, pH=7.4 and 30 μM 2, 3 diphosphoglycerate (DPG) in 96 well plates in a final volume of 160 μl. Compounds were added at different concentrations (3 μM to 100 μM final concentrations). Plates were covered with a Mylar film. After incubation was completed the Mylar cover was removed and the plates were placed in a Spectrostar Nano plate reader previously heated at 37° C. Five minutes later, N2 (flow rate=20 L/min) was flowed through the spectrophotometer. Spectroscopic measurements (300 nm to 700 nm) were taken every 5 min for 2 hours. Data analysis was performed by using linear regression from the data retrieved for all wavelengths.
Table 4 below lists the delta R values where + indicates a delta R of between 0 and 30, ++ indicates a delta R of between 30 and 50, and +++ indicates a delta R of 50 or greater. Unless noted otherwise, the compounds in Table 2 were tested at 9 μM.

Row | SMILES | delta R (%)
28 | COc1ccc(OCc2cccc3ncccc23)c(C=O)c1 [Compound 10, 5-methoxy-2-(quinolin-5-ylmethoxy)benzaldehyde] | ++ (++ indicates a delta R of between 30 and 50)
29 | COc1ccc(OCc2cccnc2)c(C=O)c1 [Compound 41, 5-methoxy-2-(pyridin-3-ylmethoxy)benzaldehyde] | + (+ indicates a delta R of between 0 and 30)
30 | COc1ccc(OCc2cn3ccccc3n2)c(C=O)c1 [Compound 5, 2-(imidazo[1,2-a]pyridin-2-ylmethoxy)-5-methoxybenzaldehyde] | ++ (++ indicates a delta R of between 30 and 50)
31 | COc1ccc(OCc2cccc3[nH]ncc23)c(C=O)c1 [Compound 25, 2-((1H-indazol-4-yl)methoxy)-5-methoxybenzaldehyde] | ++ (++ indicates a delta R of between 30 and 50)
32 | COc1ccc(OCc2cn3cccc(C)c3n2)c(C=O)c1 [Compound 24, 5-methoxy-2-((8-methylimidazo[1,2-a]pyridin-2-yl)methoxy)benzaldehyde] | + (+ indicates a delta R of between 0 and 30)
